Laboratory results: US20030181354A1, “Method for central nervous system targeting through the ocular route of drug delivery” (priority 2002, published 2003)

How the values were obtained:
memory = details: very small doses, monkeys; cited from earlier work
[1] = Experimental: A study was conducted to examine for the first time the neuro-ocular tissue distribution of brimonidine following one single 50 μl instillation of 3H-Alphagan aqueous solution (0.2%) into the albino rabbit eye. Both eyes and the brain were dissected. Both side specimens of aqueous humor, cornea, iris, lens, vitreous, conjunctiva, sclera, ciliary body, choroid, retina, optic nerve, optic tract, olfactory bulb, as well as corpus callosum and blood samples were collected. The corpus callosum was chosen as an indicator of general availability of the drug in the brain. The olfactory bulbs were included to rule out ocular-brain drug delivery through the nasal cavity.
In the method employed, following single instillation of 50 μl of [3H]-radio labeled brimonidine tartrate in the cul-de-sac of the right eye, male albino rabbits (2-2.5 kg) were sacrificed at the selected time point (15, 30 min., 1, 2. 3, and 4 h). Both eyes and the brain were dissected. Both sides specimens of aqueous humor, cornea, iris, lens, vitreous, conjunctiva, sclera, ciliary body, choroid, retina, optic nerve, optic tract, as well as chiasm, cerebral and blood samples were weighted before combustion in Packard sample Oxidizer (model 307), and radioactive [3H] brimonidine liquid scintillation counting.

[2] = reported; cited from earlier work
[3] = test system: alpha 2-adrenoceptor regulated serotonin release; details: rat hippocampus in vivo; cited from earlier work
[4] = test system: migraine related symptoms; details: 0.2% topical to the eye, as additional antiglaucoma agent
Description: A patient with a history of migraine, and both eyes primary open angle glaucoma.
A patient with a history of migraine, and right eye primary open angle glaucoma.

Molecule: Brc1c(NC2=NCCN2)ccc2nccnc12 [brimonidine, 5-bromo-6-(2-imidozolin-2-ylamino) quinoxaline]
- effect on memory (memory): reliable but modest improvement of memory
- contralateral eye choroid peak higher than in the blood ([1]; 15 min, P<0.001): 99.5 folds
- contralateral eye ciliary body peak higher than in the blood ([1]; 15 min, P<0.001): 76.5 folds
- corpus callosum AUC higher than in the left optic nerve ([1]; P<0.01): 118%
- corpus callosum AUC higher than in the right optic nerve ([1]; P<0.01): 177%
- corpus callosum AUC higher than in the right optic tract ([1]; P<0.05): 123%
- corpus callosum AUC higher than in the left optic tract ([1]; P<0.10): 111%
- corpus callosum 3H-brimonidine concentration ([1]; at 5 min): 993.79 ± 48.43 ng/g
- corpus callosum concentration higher than in the right optic nerve ([1]; at 5 min, P<0.001): 763%
- brimonidine concentration in the corpus callosum higher than in the blood ([1]; at 5 minutes, P<0.001): 148 folds
- drug concentration detected in the blood samples ([1]; blood, after ocular instillation): extremely low
- time of brimonidine delivery to the ciliary body of the contralateral eye ([1]; contralateral eye): < 5 min
- ciliary body brimonidine level ([1]; contralateral eye, 5 minutes post drug application): 444.28 ± 86.38 ng/g
- ciliary body brimonidine level, peak ([1]; contralateral eye, 15 minutes): 619.74 ± 36.35 ng/g
- ciliary body AUC higher than in the conjunctiva ([1]; contralateral eye, P<0.001): 340%
- ciliary body AUC higher than in the retina ([1]; contralateral eye, P<0.001): 322%
- choroid AUC higher than in the conjunctiva ([1]; contralateral eye, P<0.01): 290%
- choroid AUC higher than in the retina ([1]; contralateral eye, P<0.01): 275%
- drug levels observed in the olfactory bulbs ([1]; olfactory bulbs): low
- Vitreal AUC as % of aqueous humor AUC ([1]; treated eye, P<0.01): 8.85%
- Choroidal brimonidine AUC higher than retinal AUC ([1]; treated eye, p<0.001): 196%
- Retinal AUC higher than vitreous AUC ([1]; treated eye, p<0.001): 636%
- Vitreal AUC as % of retinal AUC ([1]; treated eye, p<0.001): 15.7%
- brimonidine AUC corpus callosum higher than blood ([1]; whole study period, P<0.001): 40 folds
- systemic half life [2]: 3 h
- effect on release of serotonin (5-HT) [3]: inhibitory action

Molecule: tartrate of 5-bromo-6-(2-imidozolin-2-ylamino) quinoxaline [brimonidine tartrate]
- patient-reported effect on migraine related symptoms [4]: substantial relief of migraine related symptoms
